Series [1] deals with IL-1β release in human PBMCs. In words: Assay of IL-1β release in human PBMCs. The format is cell-based. The settings on record: 10 ng/mL LPS 3 h, compound 0.5 h, 5 mM ATP 1 h, ELISA. Here is the method: 5 mL of human venous whole blood from a healthy donor was placed in a Li-heparin tube. PBMCs were isolated and incubated in a culture medium containing 10 ng/mL LPS at 37° C./5% CO2 for 3 h. Cells were plated in a 96-well plate at 50 μL per well. 25 μL of compound or solvent control was added to each well and 3-fold diluted in gradient from a maximum concentration of 10 μM, and 8 gradient concentrations were set. The mixtures were incubated for 0.5 h. 25 μL of ATP at a final concentration of 5 mM was added to each well, and the resulting mixtures were incubated for 1 h. After the incubation, the mixtures were centrifuged at 1500 rpm for 20 min, and the supernatant was collected to detect the expression level of […] by ELISA (BD, Human IL-1β ELISA Set II, Cat #557953). IC50 was calculated using GraphPad Prism7.0 software. The results are shown in Table 2, which indicate that: the compounds disclosed herein down-regulate release of mature IL-1β by inhibiting the activity of Caspase-1, and the IC50 is <50 nM.

The nature of series [2]: Pharmacokinetic analysis of compounds in rats. The format is in vivo, SD rats. The conditions noted are these: rat, in vivo. Put shortly: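 Fasted SD rats (180–220 g) dosed by tail vein or intragastrically. Orbital-plexus blood sampled pre-dose and from 5 min to 24 h. Plasma parent drug quantified by LC-MS/MS.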
Series [3] deals with Rat dorsal air pouch models. As to the kind of experiment: Rat dorsal air pouch pharmacodynamic models (sodium urate). The settings on record: 50 mg/kg intragastric, air pouch exudate 5 h after 1% sodium urate. The series is classed as in vivo, SD rats. Here is the method:
Healthy adult male SD rats weighing 180-220 g were purchased, and rat dorsal air pouch models were constructed after adaptive feeding of the rats. On day 1, day 4 and day 7 of modeling, 20 mL of sterile air was injected subcutaneously into the back of rats by means of injection needles, and the air pouch was maintained at an inflated state. On day 8, 50 mg/kg compound or vehicle control was administered intragastrically. 5 mL of 1% sodium urate suspension was injected into the dorsal air pouch, and air pouch exudate was collected 5 h later. 40 μL of the exudate was taken for leukocyte counting. The remaining exudate was centrifuged at 1500 rpm for 20 min, and the supernatant was collected to detect the expression level of IL-1β by ELISA (BD, Human IL-1β ELISA Set II, Cat #557953).

In series [4] the test system is Human monocyte cell line THP-1. In words: Detection of THP-1 cell pyroptosis (Caspase-Glo 1 Inflammasome Assay). The series is classed as cell-based. The settings on record: THP-1 pyroptosis, 20 nM PMA 48 h, 1 μg/mL LPS, compound 3 h. The essentials: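 Differentiated with 20 nM PMA for 48 h (50,000 cells/well), then given serum-free medium with 1 μg/mL LPS and compound in a 10-point, 3-fold series from 10 μM for 3 h at 37 °C. Caspase-1 activity read with Caspase-Glo 1 Inflammasome kit; IC50 calculated.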

Compound `CC(C)(O)c1coc(S(=N)(=O)NC(=O)Nc2c(CC3CCC3)ccc3c2CCC3)c1` (single isomer, unassigned) [Compound 18-2, RS- and SS-N-((5-(cyclobutylmethyl)-2,3-dihydro-1H-inden-4-yl)carbamoyl)-4-(2-hydroxypropan-2-yl)furan-2-sulfonimidamide] gave an IC50 in series [1] of 0.0112 µM. Moreover, in series [2] (iv, 1 mg/kg), the “AUC” value was determined as 3.691 µg·h/mL, the “Cl” value came to 0.336 L/h/kg, the volume of distribution (Vss) was determined as 0.346 L/kg and the “t1/2” value came to 0.86 h. In addition, in series [2] (po, 10 mg/kg), the “AUC” value worked out at 28.427 µg·h/mL, the “Cmax” value was 16.6 µg/mL and the “t1/2” value turned out to be 3.1 h. The “Leukocyte concentration (10^6/mL)” value in series [3] is listed as 1.72 ± 0.3 10^6/mL. Besides, the “IL-1β concentration in exudate” value in series [3] (ELISA) is given as 795.5 ± 232.8 pg/mL. Moreover, in series [4], the IC50 was at most 0.1 µM.
